Biological target: Aβ42 (Homo sapiens, UniProt P05067)
Test: Th-T (thioflavin-T) assay of Aβ42 aggregation
Assay type: biochemical

Chain of Aβ42 (P05067 672-713): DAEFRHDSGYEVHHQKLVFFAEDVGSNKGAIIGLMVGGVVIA

## C=C1CCC2C(C)(CCC=C(C)C)C(O)CCC2(C)C1Cc1c(OC)oc(CO)c(C(=O)OC)c1=O (stereo not drawn) [Compound 13]
Column suffix _20, reading M101
  Fig. 7a Th-T reading, mean of three wells: 1.039
Column suffix _20, reading M102
  Fig. 7a Th-T reading, mean of three wells: 1.036
Column suffix _20, reading M103
  Fig. 7a Th-T reading, mean of three wells: 1.04
Column suffix _20, reading M104
  Fig. 7a Th-T reading, mean of three wells: 1.043
Column suffix _20, reading M105
  Fig. 7a Th-T reading, mean of three wells: 1.05
Column suffix _20, reading M106
  Fig. 7a Th-T reading, mean of three wells: 1.043
Column suffix _50, measurement M19
  Th-T fluorescence, mean of three wells (Fig. 7a): 0.2105
Column suffix _50, measurement M20
  Th-T fluorescence, mean of three wells (Fig. 7a): 0.229
Column suffix _50, measurement M21
  Th-T fluorescence, mean of three wells (Fig. 7a): 0.2537
Column suffix _50, measurement M22
  Th-T fluorescence, mean of three wells (Fig. 7a): 0.2749
Column suffix _50, measurement M23
  Th-T fluorescence, mean of three wells (Fig. 7a): 0.2968
Column suffix _50, measurement M24
  Th-T fluorescence, mean of three wells (Fig. 7a): 0.3154
Column suffix _50, measurement M25
  Th-T fluorescence, mean of three wells (Fig. 7a): 0.3353
Column suffix _50, measurement M26
  Th-T fluorescence, mean of three wells (Fig. 7a): 0.3518
Column suffix _50, measurement M27
  Th-T fluorescence, mean of three wells (Fig. 7a): 0.3638
Column suffix _50, measurement M28
  Th-T fluorescence, mean of three wells (Fig. 7a): 0.3753
Column suffix _50, measurement M29
  Th-T fluorescence, mean of three wells (Fig. 7a): 0.3846
Column suffix _50, reading M1
  Th-T assay signal, mean of three wells (Fig. 7a): 0.5109
Column suffix _50, reading M2
  Th-T assay signal, mean of three wells (Fig. 7a): 0.3694
Column suffix _50, reading M3
  Th-T assay signal, mean of three wells (Fig. 7a): 0.2987
Column suffix _50, reading M4
  Th-T assay signal, mean of three wells (Fig. 7a): 0.2463
Column suffix _50, reading M5
  Th-T assay signal, mean of three wells (Fig. 7a): 0.2182
Column suffix _50, reading M6
  Th-T assay signal, mean of three wells (Fig. 7a): 0.2003
Column suffix _50, reading M7
  Th-T assay signal, mean of three wells (Fig. 7a): 0.1883
Column suffix _50, reading M8
  Th-T assay signal, mean of three wells (Fig. 7a): 0.1784
Column suffix _50, reading M9
  Th-T assay signal, mean of three wells (Fig. 7a): 0.17
Column suffix _50, reading M10
  Th-T assay signal, mean of three wells (Fig. 7a): 0.1689
Column suffix _50, reading M11
  Th-T assay signal, mean of three wells (Fig. 7a): 0.1659
Column suffix _50, reading M12
  Th-T assay signal, mean of three wells (Fig. 7a): 0.1664
Column suffix _50, reading M13
  Th-T assay signal, mean of three wells (Fig. 7a): 0.1648
Column suffix _50, reading M14
  Th-T assay signal, mean of three wells (Fig. 7a): 0.1691
Column suffix _50, reading M15
  Th-T assay signal, mean of three wells (Fig. 7a): 0.173
Column suffix _50, reading M16
  Th-T assay signal, mean of three wells (Fig. 7a): 0.1783
Column suffix _50, reading M17
  Th-T assay signal, mean of three wells (Fig. 7a): 0.1848
Column suffix _50, reading M18
  Th-T assay signal, mean of three wells (Fig. 7a): 0.1952
Column suffix _50, reading M85
  Fig. 7a Th-T reading, mean of three wells: 0.4685
Column suffix _50, reading M86
  Fig. 7a Th-T reading, mean of three wells: 0.4692
Column suffix _50, reading M87
  Fig. 7a Th-T reading, mean of three wells: 0.4718
Column suffix _50, reading M88
  Fig. 7a Th-T reading, mean of three wells: 0.4737
Column suffix _50, reading M89
  Fig. 7a Th-T reading, mean of three wells: 0.4759
Column suffix _50, reading M90
  Fig. 7a Th-T reading, mean of three wells: 0.4735
Column suffix _50, reading M91
  Fig. 7a Th-T reading, mean of three wells: 0.4713
Column suffix _50, reading M92
  Fig. 7a Th-T reading, mean of three wells: 0.4706
Column suffix _50, reading M93
  Fig. 7a Th-T reading, mean of three wells: 0.4737
Column suffix _50, reading M94
  Fig. 7a Th-T reading, mean of three wells: 0.4775
Column suffix _50, reading M95
  Fig. 7a Th-T reading, mean of three wells: 0.4772
Column suffix _50, reading M96
  Fig. 7a Th-T reading, mean of three wells: 0.4744
Column suffix _50, reading M97
  Fig. 7a Th-T reading, mean of three wells: 0.4689
Column suffix _50, reading M98
  Fig. 7a Th-T reading, mean of three wells: 0.4718
Column suffix _50, reading M99
  Fig. 7a Th-T reading, mean of three wells: 0.4742
Column suffix _50, reading M100
  Fig. 7a Th-T reading, mean of three wells: 0.4783
Column suffix _50, reading M101
  Fig. 7a Th-T reading, mean of three wells: 0.4707
Column suffix _50, reading M102
  Fig. 7a Th-T reading, mean of three wells: 0.471
Column suffix _50, reading M103
  Fig. 7a Th-T reading, mean of three wells: 0.4747
Column suffix _50, reading M104
  Fig. 7a Th-T reading, mean of three wells: 0.4762
Column suffix _50, reading M105
  Fig. 7a Th-T reading, mean of three wells: 0.477
Column suffix _50, reading M106
  Fig. 7a Th-T reading, mean of three wells: 0.4781
Compound at 10, reading M41 of time course
  Th-T fluorescence, mean of three wells: 1.211
Compound at 10, reading M42 of time course
  Th-T fluorescence, mean of three wells: 1.2969
Compound at 10, reading M43 of time course
  Th-T fluorescence, mean of three wells: 1.3329
Compound at 10, reading M44 of time course
  Th-T fluorescence, mean of three wells: 1.377
Compound at 10, reading M45 of time course
  Th-T fluorescence, mean of three wells: 1.405
Compound at 10, reading M46 of time course
  Th-T fluorescence, mean of three wells: 1.436
Compound at 10, reading M47 of time course
  Th-T fluorescence, mean of three wells: 1.47
Compound at 10, reading M48 of time course
  Th-T fluorescence, mean of three wells: 1.487
Compound at 10, reading M49 of time course
  Th-T fluorescence, mean of three wells: 1.496
Compound at 10, reading M50 of time course
  Th-T fluorescence, mean of three wells: 1.5062
Compound at 10, reading M51 of time course
  Th-T fluorescence, mean of three wells: 1.523
Compound at 10, reading M52 of time course
  Th-T fluorescence, mean of three wells: 1.537
Compound at 10, reading M53 of time course
  Th-T fluorescence, mean of three wells: 1.531
Compound at 10, reading M54 of time course
  Th-T fluorescence, mean of three wells: 1.542
Compound at 10, reading M55 of time course
  Th-T fluorescence, mean of three wells: 1.541
Compound at 10, reading M56 of time course
  Th-T fluorescence, mean of three wells: 1.545
Compound at 10, reading M57 of time course
  Th-T fluorescence, mean of three wells: 1.551
Compound at 10, reading M58 of time course
  Th-T fluorescence, mean of three wells: 1.551
Compound at 10, reading M59 of time course
  Th-T fluorescence, mean of three wells: 1.549
Compound at 10, reading M60 of time course
  Th-T fluorescence, mean of three wells: 1.541
Compound at 10, reading M61 of time course
  Th-T fluorescence, mean of three wells: 1.554
Compound at 10, reading M62 of time course
  Th-T fluorescence, mean of three wells: 1.56
Compound at 20, reading M41 of time course
  Th-T fluorescence, mean of three wells: 0.3859
Compound at 20, reading M42 of time course
  Th-T fluorescence, mean of three wells: 0.4228
Compound at 20, reading M43 of time course
  Th-T fluorescence, mean of three wells: 0.4511
Compound at 20, reading M44 of time course
  Th-T fluorescence, mean of three wells: 0.4829
Compound at 20, reading M45 of time course
  Th-T fluorescence, mean of three wells: 0.5147
Compound at 20, reading M46 of time course
  Th-T fluorescence, mean of three wells: 0.5564
Compound at 20, reading M47 of time course
  Th-T fluorescence, mean of three wells: 0.5957
Compound at 20, reading M48 of time course
  Th-T fluorescence, mean of three wells: 0.6248
Compound at 20, reading M49 of time course
  Th-T fluorescence, mean of three wells: 0.6553
Compound at 20, reading M50 of time course
  Th-T fluorescence, mean of three wells: 0.6948
Compound at 20, reading M51 of time course
  Th-T fluorescence, mean of three wells: 0.7326
Compound at 20, reading M52 of time course
  Th-T fluorescence, mean of three wells: 0.7726
Compound at 20, reading M53 of time course
  Th-T fluorescence, mean of three wells: 0.8004
Compound at 20, reading M54 of time course
  Th-T fluorescence, mean of three wells: 0.8343
Compound at 20, reading M55 of time course
  Th-T fluorescence, mean of three wells: 0.8641
Compound at 20, reading M56 of time course
  Th-T fluorescence, mean of three wells: 0.9063
Compound at 20, reading M57 of time course
  Th-T fluorescence, mean of three wells: 0.941
Compound at 20, reading M58 of time course
  Th-T fluorescence, mean of three wells: 0.9604
Compound at 20, reading M59 of time course
  Th-T fluorescence, mean of three wells: 0.9808
Compound at 20, reading M60 of time course
  Th-T fluorescence, mean of three wells: 0.9918
Compound at 20, reading M61 of time course
  Th-T fluorescence, mean of three wells: 1.018
Compound at 20, reading M62 of time course
  Th-T fluorescence, mean of three wells: 1.031
Compound at 50, reading M41 of time course
  Th-T fluorescence, mean of three wells: 0.4483
Compound at 50, reading M42 of time course
  Th-T fluorescence, mean of three wells: 0.4529
Compound at 50, reading M43 of time course
  Th-T fluorescence, mean of three wells: 0.452
Compound at 50, reading M44 of time course
  Th-T fluorescence, mean of three wells: 0.4555
Compound at 50, reading M45 of time course
  Th-T fluorescence, mean of three wells: 0.4534
Compound at 50, reading M46 of time course
  Th-T fluorescence, mean of three wells: 0.4569
Compound at 50, reading M47 of time course
  Th-T fluorescence, mean of three wells: 0.4654
Compound at 50, reading M48 of time course
  Th-T fluorescence, mean of three wells: 0.4625
Compound at 50, reading M49 of time course
  Th-T fluorescence, mean of three wells: 0.4637
Compound at 50, reading M50 of time course
  Th-T fluorescence, mean of three wells: 0.4613
Compound at 50, reading M51 of time course
  Th-T fluorescence, mean of three wells: 0.4698
Compound at 50, reading M52 of time course
  Th-T fluorescence, mean of three wells: 0.4696
Compound at 50, reading M53 of time course
  Th-T fluorescence, mean of three wells: 0.4691
